Test results: patent US10023557B2 (LifeSci Pharmaceuticals, Inc., priority 2015, dated 2018)

Biological target: human plasma kallikrein (Homo sapiens (Human), UniProt P03952)
Experiment: In vitro enzyme inhibition of human plasma kallikrein (PFR-AMC cleavage)
Format: biochemical
Conditions: Pro-Phe-Arg-AMC substrate, 37° C., read-out: hPK IC50
Description: The ability of the compounds disclosed herein to inhibit human plasma kallikrein activity was quantified according to the procedures below.
A 10 mM solution of the test compound was made in DMSO. […] A control tube containing only DMSO is included. 16 μL of each compound test solution was combined with 384 μL of assay buffer (50 mM Tris-HCl pH 7.5, 150 mM NaCl, 0.01% Triton X-100) to yield a “4× test compound buffer stock”.
These solutions are hereby referred to as 4× hPK and 2×PFR-AMC, respectively.
50 μL was removed from this mixture and placed into duplicate wells on a Microfluor 1Black U-bottom microtiter plate (Thermo Scientific). This plate was incubated for 5 minutes at 37° C. To each well, 50 μL of pre-warmed 2×PFR-AMC was added to start the enzymatic reaction. Cleavage of PFR-AMC was monitored in a Biotek Synergy H4 reader set at 37° C. Readings are taken every 43 seconds for 1 hour. […] The IC50 is calculated using the Gen5 (Biotek Instruments).
The ability of the compounds in Table 3 to inhibit human plasma kallikrein activity was determined.

Sequence of human plasma kallikrein (P03952 391-638): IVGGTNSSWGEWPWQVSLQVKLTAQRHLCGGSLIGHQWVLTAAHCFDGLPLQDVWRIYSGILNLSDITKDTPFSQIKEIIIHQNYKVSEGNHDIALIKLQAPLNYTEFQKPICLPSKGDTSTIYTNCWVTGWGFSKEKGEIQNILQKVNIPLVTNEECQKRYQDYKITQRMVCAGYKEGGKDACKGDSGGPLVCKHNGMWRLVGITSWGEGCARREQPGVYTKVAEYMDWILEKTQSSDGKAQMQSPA
Sequence of human plasma kallikrein (P03952 20-390 partner): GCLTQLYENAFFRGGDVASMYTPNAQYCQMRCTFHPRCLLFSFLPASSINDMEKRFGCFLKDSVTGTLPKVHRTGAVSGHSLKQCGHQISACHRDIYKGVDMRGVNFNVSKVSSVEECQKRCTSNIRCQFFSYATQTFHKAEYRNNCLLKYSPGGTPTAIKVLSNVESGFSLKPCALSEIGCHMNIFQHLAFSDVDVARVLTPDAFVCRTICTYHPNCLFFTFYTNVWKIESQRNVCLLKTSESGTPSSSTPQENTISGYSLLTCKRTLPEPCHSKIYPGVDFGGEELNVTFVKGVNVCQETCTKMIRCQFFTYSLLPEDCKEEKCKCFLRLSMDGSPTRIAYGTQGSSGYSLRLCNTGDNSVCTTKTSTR

| IC50 [µM] | SMILES |
| --- | --- |
| < 0.1 | Cc1cc(N)nc(C)c1CNC(=O)c1ccnc(Cc2cc3cc(Cl)ccc3[nH]2)c1 [Example 147, N-((6-amino-2,4-dimethylpyridin-3-yl)methyl)-2-((5-chloro-1H-indol-2-yl)methyl)isonicotinamide] |
| 0.1 to 1 | Cc1cc(N)nc(C)c1CNC(=O)c1ccnc(Cc2cnc3[nH]c(Cl)cc3c2)c1 [Example 150, N-((6-amino-2,4-dimethylpyridin-3-yl)methyl)-2-((2-chloro-1H-pyrrolo[2,3-b]pyridin-5-yl)methyl)isonicotinamide] |
| 0.1 to 1 | Cc1cc(N)nc(C)c1CNC(=O)c1ccnc(Cc2cc3cc(C(F)(F)F)ccc3[nH]2)c1 [Example 151, N-((6-amino-2,4-dimethylpyridin-3-yl)methyl)-2-((5-(trifluoromethyl)-1H-indol-2-yl)methyl)isonicotinamide] |
| 0.1 to 1 | O=C(NCc1nnc2ccc(Cl)cn12)c1ccnc(Cc2ccc3ncc(Cl)cc3c2)c1 [Example 154, N-((6-chloro-[1,2,4]triazolo[4,3-a]pyridin-3-yl)methyl)-2-((3-chloroquinolin-6-yl)methyl)isonicotinamide] |
| 0.1 to 1 | Cc1ccn2nnc(CNC(=O)c3ccnc(Cc4ccc5ncc(Cl)cc5c4)c3)c2c1 [Example 155, 2-((3-chloroquinolin-6-yl)methyl)-N-((5-methyl-[1,2,3]triazolo[1,5-a]pyridin-3-yl)methyl)isonicotinamide] |
| > 10 | O=C(NCc1cnc2ccc(Cl)cn12)c1ccnc(Cc2ccc3ncc(Cl)cc3c2)c1 [Example 157, N-((6-chloroimidazo[1,2-a]pyridin-3-yl)methyl)-2-((3-chloroquinolin-6-yl)methyl)isonicotinamide] |
| 0.1 to 1 | Cc1ccn2c(C)nc(CNC(=O)c3ccnc(Cc4ccc5ncc(Cl)cc5c4)c3)c2c1 [Example 158, 2-((3-chloroquinolin-6-yl)methyl)-N-((3,7-dimethylimidazo[1,5-a]pyridin-1-yl)methyl)isonicotinamide] |
| 0.1 to 1 | Cc1ccn2c(C)nc(CNC(=O)c3ccnc(Cc4ccc5ncc(C(F)(F)F)cc5c4)c3)c2c1 [Example 159, N-((3,7-dimethylimidazo[1,5-a]pyridin-1-yl)methyl)-2-((3-(trifluoromethyl)quinolin-6-yl)methyl)isonicotinamide] |
| > 10 | Cc1ccn2c(C(F)(F)F)nc(CNC(=O)c3ccnc(Cc4ccc5ncc(Cl)cc5c4)c3)c2c1 [Example 160, 2-((3-chloroquinolin-6-yl)methyl)-N-((7-methyl-3-(trifluoromethyl)imidazo[1,5-a]pyridin-1-yl)methyl)isonicotinamide] |
| 0.1 to 1 | Cc1nc2c(cc1CNC(=O)c1ccnc(Cc3ccc4ncc(Cl)cc4c3)c1)CCN2 [Example 161, 2-((3-chloroquinolin-6-yl)methyl)-N-((6-methyl-2,3-dihydro-1H-pyrrolo[2,3-b]pyridin-5-yl)methyl)isonicotinamide] |
| 0.1 to 1 | Cc1nc2c(cc1CNC(=O)c1ccnc(Cc3ccc4ncc(C(F)(F)F)cc4c3)c1)CCN2 [Example 162, N-((6-methyl-2,3-dihydro-1H-pyrrolo[2,3-b]pyridin-5-yl)methyl)-2-((3-(trifluoromethyl)quinolin-6-yl)methyl)isonicotinamide] |
| > 10 | Cc1nc2c(cc1CNC(=O)c1ccnc(Cc3ccc4ncc(C(F)(F)F)cc4c3)c1)CNC2 [Example 164, N-((2-methyl-6,7-dihydro-5H-pyrrolo[3,4-b]pyridin-3-yl)methyl)-2-((3-(trifluoromethyl)quinolin-6-yl)methyl)isonicotinamide] |
| > 10 | COc1cc(N)nc(C)c1CNC(=O)c1ccnc(Cc2ccc3ncc(Cl)cc3c2)c1 [Example 166, N-((6-amino-4-methoxy-2-methylpyridin-3-yl)methyl)-2-((3-chloroquinolin-6-yl)methyl)isonicotinamide] |
| > 10 | Cc1nc(N)cc(C#N)c1CNC(=O)c1ccnc(Cc2ccc3ncc(Cl)cc3c2)c1 [Example 167, N-((6-amino-4-cyano-2-methylpyridin-3-yl)methyl)-2-((3-chloroquinolin-6-yl)methyl)isonicotinamide] |
| 0.1 to 1 | NCc1ccc(CNC(=O)c2ccnc(Cc3ccc4ncc(Cl)cc4c3)c2)cc1 [Example 168, N-(4-(aminomethyl)benzyl)-2-((3-chloroquinolin-6-yl)methyl)isonicotinamide] |
| > 10 | NCc1ccc(CNC(=O)c2ccnc(Cc3ccc4ncc(Cl)cc4c3)c2)cn1 [Example 169, N-((6-(aminomethyl)pyridin-3-yl)methyl)-2-((3-chloroquinolin-6-yl)methyl)isonicotinamide] |
| > 10 | NCc1ccc(CNC(=O)c2ccnc(Cc3ccc4ncc(Cl)cc4c3)c2)nc1 [Example 170, N-((5-(aminomethyl)pyridin-2-yl)methyl)-2-((3-chloroquinolin-6-yl)methyl)isonicotinamide] |
| 1 to 10 | Cc1cc(C(C)N)nc(C)c1CNC(=O)c1ccnc(Cc2ccc3ncc(Cl)cc3c2)c1 (centres unmarked) [Example 173, N-((6-(1-aminoethyl)-2,4-dimethylpyridin-3-yl)methyl)-2-((3-chloroquinolin-6-yl)methyl)isonicotinamide] |
| > 10 | Cc1cc(C(C)(C)O)nc(C)c1CNC(=O)c1ccnc(Cc2ccc3ncc(C(F)(F)F)cc3c2)c1 [Example 174, N-((6-(2-hydroxypropan-2-yl)-2,4-dimethylpyridin-3-yl)methyl)-2-((3-(trifluoromethyl)quinolin-6-yl)methyl)isonicotinamide] |
| < 0.1 | Cc1nc2c(c(C)c1CNC(=O)c1ccnc(Cc3ccc4ncc(Cl)cc4c3)c1)CCN2 [Example 175, 2-((3-chloroquinolin-6-yl)methyl)-N-((4,6-dimethyl-2,3-dihydro-1H-pyrrolo[2,3-b]pyridin-5-yl)methyl)isonicotinamide] |
| > 10 | O=C(NCc1ccc2cnc(C(F)(F)F)n2c1)c1ccnc(Cc2ccc3ncc(Cl)cc3c2)c1 [Example 185, 2-((3-chloroquinolin-6-yl)methyl)-N-((3-(trifluoromethyl)imidazo[1,5-a]pyridin-6-yl)methyl)isonicotinamide] |
| 0.1 to 1 | Nc1ncc2cc(CNC(=O)c3ccnc(Cc4ccc5ncc(Cl)cc5c4)c3)ccn12 [Example 187, N-((3-aminoimidazo[1,5-a]pyridin-7-yl)methyl)-2-((3-chloroquinolin-6-yl)methyl)isonicotinamide] |
| > 10 | Cc1cc2cncn2cc1CNC(=O)c1ccnc(Cc2ccc3ncc(Cl)cc3c2)c1 [Example 188, 2-((3-chloroquinolin-6-yl)methyl)-N-((7-methylimidazo[1,5-a]pyridin-6-yl)methyl)isonicotinamide] |
| 0.1 to 1 | Cc1c(CNC(=O)c2ccnc(Cc3ccc4ncc(Cl)cc4c3)c2)cnc2[nH]cc(Cl)c12 [Example 189, N-((3-chloro-4-methyl-1H-pyrrolo[2,3-b]pyridin-5-yl)methyl)-2-((3-chloroquinolin-6-yl)methyl)isonicotinamide] |
| 0.1 to 1 | Cc1cc2[nH]cc(Cl)c2cc1CNC(=O)c1ccnc(Cc2ccc3ncc(Cl)cc3c2)c1 [Example 190, N-((3-chloro-6-methyl-1H-indol-5-yl)methyl)-2-((3-chloroquinolin-6-yl)methyl)isonicotinamide] |
| < 0.1 | Cc1nc2[nH]cc(Cl)c2cc1CNC(=O)c1ccnc(Cc2ccc3ncc(Cl)cc3c2)c1 [Example 191, N-((3-chloro-6-methyl-1H-pyrrolo[2,3-b]pyridin-5-yl)methyl)-2-((3-chloroquinolin-6-yl)methyl)isonicotinamide] |
| 0.1 to 1 | Cc1nc2[nH]cc(Cl)c2c(C)c1CNC(=O)c1ccnc(Cc2ccc3ncc(Cl)cc3c2)c1 [Example 192, N-((3-chloro-4,6-dimethyl-1H-pyrrolo[2,3-b]pyridin-5-yl)methyl)-2-((3-chloroquinolin-6-yl)methyl)isonicotinamide] |
| 1 to 10 | Cc1cc(C)c(CNC(=O)c2ccnc(Cc3ccc4ncc(Cl)cc4c3)c2)c(C)n1 [Example 194, 2-((3-chloroquinolin-6-yl)methyl)-N-((2,4,6-trimethylpyridin-3-yl)methyl)isonicotinamide] |
| < 0.1 | Cc1nc2c(c(C)c1CNC(=O)c1ccnc(Cc3ccc4ncc(Cl)cc4c3)c1)CCCN2 [Example 195, 2-((3-chloroquinolin-6-yl)methyl)-N-((2,4-dimethyl-5,6,7,8-tetrahydro-1,8-naphthyridin-3-yl)methyl)isonicotinamide] |
| < 0.1 | Cc1cc(N)nc(C)c1CNC(=O)c1cc(Cc2ccc3ncc(Cl)cc3c2)nc(-c2n[nH]c(=O)[nH]2)c1 [Example 196, N-((6-amino-2,4-dimethylpyridin-3-yl)methyl)-2-((3-chloroquinolin-6-yl)methyl)-6-(5-oxo-4,5-dihydro-1H-1,2,4-triazol-3-yl)isonicotinamide] |

| SMILES | IC50 [µM] |
| --- | --- |
| Cc1nc(N)cc(C(F)(F)F)c1CNC(=O)c1ccnc(Cc2ccc3ncc(Cl)cc3c2)c1 [Example 165, N-((6-amino-2-methyl-4-(trifluoromethyl)pyridin-3-yl)methyl)-2-((3-chloroquinolin-6-yl)methyl)isonicotinamide] | 0.1 to 1 |
| CC(=O)Nc1cc(C)c(CNC(=O)c2ccnc(Cc3ccc4ncc(Cl)cc4c3)c2)c(C)n1 [Example 193, N-((6-acetamido-2,4-dimethylpyridin-3-yl)methyl)-2-((3-chloroquinolin-6-yl)methyl)isonicotinamide] | 1 to 10 |
